Data: PubChem BioAssay AID652063 (Molecular Libraries Program, Specialized Chemistry Center, …, 2013)
Activity calls are given as the source filed them. No rule for the calls is given here.

Tested on: mouse cells, CHOP mRNA qRT-PCR
Test: Inhibitors of CHOP mRNA levels in mouse cells, qRT-PCR, medium throughput (AID 652063)

| Compound | IC50 |
| --- | --- |
| CC(C)(C)c1ccc(C(=O)Nc2ccc(CC(=O)O)cc2)o1 | > 20 µM (inactive) |
| CCN=C1NN=C(c2cc(C)n(Cc3ccco3)c2C)CS1 | 3.73 µM (inactive) |
| CCOc1ccc(-c2nc(CSCC(=O)NCc3ccco3)c(C)o2)cc1 | 4.37 µM (inactive) |
| C=CCn1c(C)cc(C2=NN=C(NCC)SC2)c1C | 6.18 µM (inactive) |
| Cc1ccc(NC(=O)c2cc3ccccc3oc2=O)cc1S(=O)(=O)N(C)C | > 20 µM (inactive) |
| Cc1ccc(NC(=O)O/N=C/c2c(C)nn(C(C)(C)C)c2C)cc1Cl | 4.53 µM (inactive) |
| Cc1cc(C(=O)COC(=O)c2ccccc2O)c(C)n1Cc1cccs1 | 6.12 µM (inactive) |
| CC(C)(C)c1ccc(-c2noc(CCC(N)=O)n2)cc1 | > 20 µM (inactive) |
| Cc1cc(C2=NNC(=NC3CC3)SC2)c(C)n1-c1ccccc1F | 2.89 µM (inactive) |
| Cc1cc(C2=NNC(=NC3CC3)SC2)c(C)n1-c1ccccc1 | 3.58 µM (inactive) |
| Cc1nn(C(C)(C)C)c(C)c1/C=N/OC(=O)Nc1ccc(Cl)cc1 | 18.4 µM (inactive) |
